# Results from patent publication US8063053B2, “1-(arylsulfonyl)-4-(piperazin-1-yl)-1H-benzimidazoles as 5-hydroxytryptamine-6 ligands” (Wyeth LLC, priority 2008, dated 2011).
# Target: T1, serotonin 5-HT6 receptor subtype (Homo sapiens, UniProt P50406)
# T1 construct: host or cells: CHO-Dukx-A2 cells, clone 50-7
# Assay: 5-HT6 binding affinity ([3H]-LSD SPA binding)
# Settings: read-out: 5-HT6 binding Ki
# T1 sequence (P50406 whole entry): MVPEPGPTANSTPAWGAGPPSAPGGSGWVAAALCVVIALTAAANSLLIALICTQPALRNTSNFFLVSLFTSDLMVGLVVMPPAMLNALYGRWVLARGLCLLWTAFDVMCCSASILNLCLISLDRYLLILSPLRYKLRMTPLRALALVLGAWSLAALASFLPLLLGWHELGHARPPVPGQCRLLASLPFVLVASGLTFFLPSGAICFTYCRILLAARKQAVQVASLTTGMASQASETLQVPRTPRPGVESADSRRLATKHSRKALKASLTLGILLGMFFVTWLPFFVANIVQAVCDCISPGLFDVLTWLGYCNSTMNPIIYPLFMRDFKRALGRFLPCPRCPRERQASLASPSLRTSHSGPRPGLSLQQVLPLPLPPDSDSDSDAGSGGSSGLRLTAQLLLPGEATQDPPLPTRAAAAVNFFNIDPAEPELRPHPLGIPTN
row,Compound,Ki [nM]
1,"COc1ccccc1S(=O)(=O)n1cnc2c(N3CCNCC3)cccc21 [Example 44, 1-[(2-methoxyphenyl)sulfonyl]-4-piperazin-1-yl-1H-benzimidazole]",0.156
2,"COc1cccc(S(=O)(=O)n2c(C)nc3c(N4CCNCC4)cccc32)c1 [Example 45, 1-[(3-methoxyphenyl)sulfonyl]-2-methyl-4-piperazin-1-yl-1H-benzimidazole]",2.07
3,"Cc1nc2c(N3CCNCC3)cccc2n1S(=O)(=O)c1ccccc1OC(F)(F)F [Example 46, 2-methyl-4-piperazin-1-yl-1-{[2-(trifluoromethoxy)phenyl]sulfonyl}-1H-benzimidazole]",1.74
4,"Cc1ccccc1S(=O)(=O)n1c(C)nc2c(N3CCNCC3)cccc21 [Example 47, 2-methyl-1-[(2-methylphenyl)sulfonyl]-4-piperazin-1-yl-1H-benzimidazole]",2.26
5,"Cc1nc2c(N3CCNCC3)cccc2n1S(=O)(=O)c1ccccc1C(F)(F)F [Example 48, 2-methyl-4-piperazin-1-yl-1-{[2-(trifluoromethyl)phenyl]sulfonyl}-1H-benzimidazole]",2.94
6,"Cc1nc2c(N3CCNCC3)cccc2n1S(=O)(=O)c1cccc(C(F)(F)F)c1 [Example 49, 2-methyl-4-piperazin-1-yl-1-{[3-(trifluoromethyl)phenyl]sulfonyl}-1H-benzimidazole]",0.982
7,"O=S(=O)(c1cccc2c(Cl)cccc12)n1cnc2c(N3CCNCC3)cccc21 [Example 50, 1-[(5-chloro-1-naphthyl)sulfonyl]-4-piperazin-1-yl-1H-benzimidazole]",1.36
8,"Cc1ccc(S(=O)(=O)n2c(C)nc3c(N4CCNCC4)cccc32)c2ccccc12 [Example 51, 2-methyl-1-[(4-methyl-1-naphthyl)sulfonyl]-4-piperazin-1-yl-1H-benzimidazole]",6.27
9,"COc1ccccc1S(=O)(=O)n1c(C)nc2c(N3CCNCC3)cccc21 [Example 52, 1-[(2-methoxyphenyl)sulfonyl]-2-methyl-4-piperazin-1-yl-1H-benzimidazole]",1.89
10,"CC1CN(c2cccc3c2ncn3S(=O)(=O)c2ccccc2Cl)CCN1 (stereo not drawn) [Example 53, 1-[(2-chlorophenyl)sulfonyl]-4-(3-methylpiperazin-1-yl)-1H-benzimidazole]",1.34
11,"CC1CN(c2cccc3c2ncn3S(=O)(=O)c2cccc(Cl)c2)CCN1 (stereo not drawn) [Example 54, 1-[(3-chlorophenyl)sulfonyl]-4-(3-methylpiperazin-1-yl)-1H-benzimidazole]",1.92

# Results, then the molecule that gave them:
row,Ki [nM],Compound
1,2.47,"Cc1cccc(S(=O)(=O)n2cnc3c(N4CCNC(C)C4)cccc32)c1 (stereo not drawn) [Example 55, 1-[(3-methylphenyl)sulfonyl]-4-(3-methylpiperazin-1-yl)-1H-benzimidazole]"
2,2.35,"COc1ccccc1S(=O)(=O)n1cnc2c(N3CCNC(C)C3)cccc21 (stereo not drawn) [Example 56, 1-[(2-methoxyphenyl)sulfonyl]-4-(3-methylpiperazin-1-yl)-1H-benzimidazole]"
3,2.09,"CC1CN(c2cccc3c2ncn3S(=O)(=O)c2ccccc2OC(F)(F)F)CCN1 (stereo not drawn) [Example 57, 4-(3-methylpiperazin-1-yl)-1-{[2-(trifluoromethoxy)phenyl]sulfonyl}-1H-benzimidazole]"
4,1.73,"Cc1c(Cl)cccc1S(=O)(=O)n1cnc2c(N3CCNC(C)C3)cccc21 (stereo not drawn) [Example 58, 1-[(3-chloro-2-methylphenyl)sulfonyl]-4-(3-methylpiperazin-1-yl)-1H-benzimidazole]"
5,0.463,"CC(C)c1nc2c(N3CCNCC3)cccc2n1S(=O)(=O)c1ccccc1Cl [Example 59, 1-[(2-chlorophenyl)sulfonyl]-4-(1-methylethyl)-4-piperazin-1-yl-1H-benzimidazole]"
6,1.08,CC(C)c1nc2c(N3CCNCC3)cccc2n1S(=O)(=O)c1cccc(Cl)c1 [Example 60]
7,0.6,"CC(C)c1nc2c(N3CCNCC3)cccc2n1S(=O)(=O)c1cccc2ccccc12 [Example 61, 2-(1-methylethyl)-1-(naphthalen-1-ylsulfonyl)-4-piperazin-1-yl-1H-benzimidazole]"
